Patent US10519167B2, “3-oxa-8-azabicyclo[3.2.1]octane derivatives and their use in the treatment of cancer and hemoglobinopathies” (CTXT PTY LTD, priority 2016, dated 2019)
pIC50: −log10 of the molar value. Counter-ions that a name gives are not always drawn.

How the values were obtained:
[1] = target: Full-length PRMT5 enzyme co-expressed with His6-MEP50 (Homo sapiens (Human), UniProt O14744); assay: PRMT5 Biochemical Assay; conditions: Transcreener EPIGEN methyltransferase assay, histone H4 derived peptide substrate, 4 hours at 37 degree Celsius
Method: Compounds of the invention may be tested for in vitro activity in the following assay:
A histone H4 derived peptide is used as substrate (amino acid sequence: […]NH2). Full-length PRMT5 enzyme (NCBI Reference sequence NP_006100.2) was co-expressed with His6-MEP50 in insect cells and purified via Nickel immobilized metal affinity and gel filtration chromatography (“the enzyme”).
The 6 μL reactions are run in Greiner brand black 384-well low volume assay plates. All reactions contained assay buffer (phosphate buffered saline, 0.01% (v/v) Tween-20, 0.01% (w/v) albumin from chicken egg white, 1 mM Dithiothreitol, 1 μM peptide substrate, 1 μM S-Adenosyl methionine, and 15 ng/reaction enzyme, with the enzyme being omitted from negative control reactions. Compounds were added in a volume of 100 nL from dilution series prepared in DMSO, positive and negative control reactions receiving the same volume DMSO without compound. The plates were sealed with adhesive seals and incubated for 4 hours at 37 degree Celsius. Reaction progress was measured using the Transcreener™ EPIGEN methyltransferase assay (BellBrook Labs, Madison, Wis.) as recommended by the manufacturer. To each reaction 2 μL detection mix were added, containing coupling enzymes, fluorescence polarisation tracer, and AMP antibody. Plates were incubated for 90 minutes before being read on a PerkinElmer EnVision™ plate reader in fluorescence polarisation mode. IC50 values were obtained from the raw readings by calculating percent inhibition (% I) for each reaction relative to controls on the same plate (% I=(I−CN)/(CP−CN) where CN/CP are the averages of the negative/positive reactions, respectively), then fitting the % I data vs. compound concentration [I] to % I=(A+((B−A)/(1+((C/[I]^D)))) where A is the lower asymptote, B is the upper asymptote, C is the IC50 value, and D is the slope.

[2] = system: TE11 cell line; assay: PRMT5 Biomarker Assay (symmetrical dimethylation of arginine, Histone H4 Arginine 3); type: cell-based; conditions: Homo sapiens, TE-11; TE11 cells, 72 hours incubation, Di-Methyl Histone H4 Arginine 3 level
Method: Compounds of the invention may be tested for potency to inhibit symmetrical dimethylation of arginine in the following assay:
The cell line TE11 was seeded at a density of 6,000 cells per well in 96 well optical quality tissue culture plates in DME medium and 10% foetal bovine serum, and allowed to adhere for 5 hours under standard culture conditions (37 degree Celsius, 5% CO2). Compound dilutions prepared in DMSO were added to the medium, with negative control wells reserved for treatment with DMSO only and maximum inhibition controls receiving a potent PRMT5 inhibitor compound at 1 μM concentration. After incubation for 72 hours, the cells were fixed with 3.7% formaldehyde in PBS for 30 minutes at room temperature, washed with phosphate buffer saline and blocked with Odyssey blocking buffer (LI-COR, Lincoln, Nebr.). Rabbit anti-Di-Methyl Histone H4 Arginine 3 specific antibody (Epigentek) in Odyssey blocking buffer was added and incubated for 14 hours at 4 degree Celsius. After washing, anti-rabbit secondary antibody labelled with Alexa647 dye (LifeTechnologies) and Hoechst 33342 (1 μg/mL, SigmaAldrich) were added for 1 hour incubation. Plates were washed and read on a PerkinElmer Envision 2103 in fluorescence intensity scanning mode (24 scans across the well area). The plates were imaged on a PerkinElmer Phenix high content imaging platform. Using a Columbus image analysis pipeline, individual nuclei were located by Hoechst 33342 stain and the methylation level was calculated from the Alexa647-related intensity in the same area. IC50 values were obtained from the mean Alexa647-related intensity per cell by calculating percent inhibition (% I) for each well relative to controls on the same plate (% I=(I−CN)/(CP−CN) where CN/CP are the averages of the negative/maximum inhibition controls, respectively), then fitting the % I data vs. compound concentration [I] to % I=(A+((B−A)/(1+((C/[I])^D)))) where A is the lower asymptote, B is the upper asymptote, C is the IC50 value, and D is the slope.

Sequence of Full-length PRMT5 enzyme co-expressed with His6-MEP50 (O14744 whole entry): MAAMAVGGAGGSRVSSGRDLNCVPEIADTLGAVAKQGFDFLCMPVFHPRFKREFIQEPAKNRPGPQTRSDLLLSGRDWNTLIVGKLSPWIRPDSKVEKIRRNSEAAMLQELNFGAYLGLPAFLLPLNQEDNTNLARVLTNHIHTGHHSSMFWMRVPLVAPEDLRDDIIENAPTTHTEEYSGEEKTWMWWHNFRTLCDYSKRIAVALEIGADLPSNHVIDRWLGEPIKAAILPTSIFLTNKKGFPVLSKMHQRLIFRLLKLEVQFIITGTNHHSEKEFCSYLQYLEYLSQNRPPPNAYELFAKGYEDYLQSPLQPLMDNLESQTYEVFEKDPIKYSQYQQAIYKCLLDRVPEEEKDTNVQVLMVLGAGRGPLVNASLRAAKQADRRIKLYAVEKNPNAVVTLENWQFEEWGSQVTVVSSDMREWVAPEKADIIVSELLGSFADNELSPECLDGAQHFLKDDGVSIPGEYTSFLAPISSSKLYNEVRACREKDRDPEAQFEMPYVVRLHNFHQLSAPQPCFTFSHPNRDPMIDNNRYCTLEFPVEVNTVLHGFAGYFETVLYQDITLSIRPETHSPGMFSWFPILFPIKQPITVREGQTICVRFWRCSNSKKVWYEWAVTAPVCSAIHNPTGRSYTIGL
Sequence of Full-length PRMT5 enzyme co-expressed with His6-MEP50 (Q9BQA1 whole entry partner): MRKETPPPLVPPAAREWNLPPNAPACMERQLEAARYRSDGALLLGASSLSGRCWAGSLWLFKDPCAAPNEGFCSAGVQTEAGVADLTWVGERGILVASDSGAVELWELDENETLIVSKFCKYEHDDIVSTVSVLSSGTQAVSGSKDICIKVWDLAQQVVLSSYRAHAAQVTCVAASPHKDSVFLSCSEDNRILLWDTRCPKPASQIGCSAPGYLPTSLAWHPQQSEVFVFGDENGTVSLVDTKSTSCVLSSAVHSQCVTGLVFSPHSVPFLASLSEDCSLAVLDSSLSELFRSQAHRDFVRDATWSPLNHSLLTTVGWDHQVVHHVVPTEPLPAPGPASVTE

Row | Structure (SMILES) | pIC50 [1] | pIC50 [2]
1 | CCOc1cc(C(=O)N2C3COCC2CC(O)C3)ccc1C(=O)NC[C@@H](O)[C@@H]1Cc2ccccc2CN1 (stereo partly drawn) [Compound 1, 2-Ethoxy-N—((R)-2-hydroxy-2-((S)-1,2,3,4-tetrahydroisoquinolin-3-yl)ethyl)-4-(7-hydroxy-3-oxa-9-azabicyclo[3.3.1]nonane-9-carbonyl)benzamide Hydrochloride] | 7.72 | 8.41
2 | CCOc1cc(C(=O)N2C3COCC2CC(O)C3)ccc1C(=O)NC[C@@H](O)CNC1Cc2ccccc2C1 (stereo partly drawn) [Compound 2, N—((S)-3-((2,3-Dihydro-1H-inden-2-yl)amino)-2-hydroxypropyl)-2-ethoxy-4-(7-hydroxy-3-oxa-9-azabicyclo[3.3.1]nonane-9-carbonyl)benzamide] | 7.72 | 9.22
3 | CCOc1cc(C(=O)N2C3CCC2COC3)ccc1C(=O)N(C)C[C@@H](O)[C@@H]1Cc2ccccc2CN1 [Compound 3, 4-(3-Oxa-8-azabicyclo[3.2.1]octane-8-carbonyl)-2-ethoxy-N—((R)-2-hydroxy-2-((S)-1,2,3,4-tetrahydroisoquinolin-3-yl)ethyl)-N-methylbenzamide Hydrochloride] | 7.44 | 7.93
